# According to publication PMC8537327, “EGFR-Targeted Pentacyclic Triterpene Analogues for Glioma Therapy” (International Journal of Molecular Sciences, 2021):
# Key:
# [1] = tested on: U251 human glioblastoma cells; test: MTT cytotoxicity assay, U251 cells; format: cell-based; settings: for IC50: MTT, 72 h; for anticancer activity against U251 cells: at 100 µM concentration
# Experimental: (§1) U251, T98G (Japanese Collection of Research Bioresources Cell Bank), and U87 human glioblastoma cell lines were incubated in Dulbecco’s Modified Eagle Medium (DMEM)/Ham’s F12 (Wako Pure Chemical Industries, Osaka, Japan), Eagle’s Minimum Essential Medium (EMEM; Wako Pure Chemical Industries, Osaka, Japan), and DMEM (Gibco/Thermo Fisher Scientific, Waltham, MA, USA) respectively, and supplemented with 10% fetal bovine serum (FBS; Sigma Aldrich, MO, USA). Jurkat human leukemic T-cell line was cultured in Roswell Park Memorial Institute (RPMI) 1640 (Wako Pure Chemical Industries, Osaka, Japan), supplemented with 10% FBS. PBMCs (Precision Bioservices, Frederick, MD, USA) were incubated in RPMI 1640 and supplemented with 10% human serum AB (HS) (Gemini, Woodland, CA, USA). All media were supplemented with 89 μg/mL streptomycin (Meiji Seika Pharma, Tokyo, Japan) at 37 °C in a humid atmosphere and 5% CO2. For each experiment, growing cells were plated at 4 × 10^4 cells/mL and 6 × 10^5 cells/mL into 24-well and 96-well microtiter tissue culture plates (Iwaki brand Asahi Glass Co., Chiba, Japan) respectively and incubated for 72 h before the addition of the drugs (the optimal cell number for cytotoxicity assays was determined in preliminary experiments). The stock solutions of the compounds and cisplatin (Sigma-Aldrich, St. Louis, MO, USA) in concentrations between 0.1–10 mM were prepared in dimethyl sulfoxide (DMSO; Wako Pure Chemical Industries, Osaka, Japan) and in H2O respectively, then were added to fresh culture medium. The concentration of DMSO and H2O in the final culture medium was 1% which had no effect on the cell viability.
# (§2) The MTT (Dojindo Molecular Technologies, Kumamoto, Japan) assay was carried out using the U251, T98G, U87, Jurkat, and PBMC cells to determine the cytotoxicity of compounds 1–13 and cisplatin as previously described in the literature with small modifications. Treated cells were incubated with different concentrations (1–100 µM) of the compounds for 72 h at 37 °C in the CO2 incubator. About 100 µL (1.1 mg/mL) of MTT solution was added to each well and after further incubation for 4 h, formazan crystals formed. At the end of this period, the medium was removed and the formazan crystals were solubilized by the addition of 100 μL DMSO to each well. The absorbance was read on an Infinite M1000 plate reader (Tecan, Mannedorf, Switzerland) at a wavelength of 550 nm with background subtraction at 630 nm. All experiments were performed in triplicate and IC50 values were defined as the drug concentrations that reduced absorbance to 50% of control values.
# [2] = tested on: T98G human glioblastoma cells; test: MTT cytotoxicity assay, T98G cells; format: cell-based; settings: for IC50: MTT, 72 h; for anticancer activity against T98G cells: at 100 µM concentration
# Experimental: as §1, §2
# [3] = tested on: U87 human glioblastoma cells; test: MTT cytotoxicity assay, U87 cells; format: cell-based; settings: for IC50: MTT, 72 h; for anticancer activity against U87 cells: at 100 µM concentration
# Experimental: as §1, §2
# [4] = tested on: Jurkat human leukemic T-cells; test: MTT cytotoxicity assay, Jurkat cells; format: cell-based; settings: for IC50: MTT, 72 h; for SI (selectivity index): SI = IC50 for PBMCs/IC50 for Jurkat cells
# Experimental: as §1, §2
# [5] = tested on: human peripheral blood mononuclear cells (PBMCs); test: MTT cytotoxicity assay, PBMCs; format: cell-based; settings: 72 h
# Experimental: as §1, §2
# U251 cells = test: Annexin V/ethidium homodimer III staining, apoptotic/necrotic cell detection; format: cell-based, human; settings: 24 h; IC50 concentration (Figure 4 legend), 5 μM (method)
# Experimental: U251 cells (4 × 10^4 cells/well) were seeded in each well of a 24-well plate with compound 10 and cisplatin at 5 μM concentration for 24 h. Then, the apoptotic/necrotic/healthy cells detection kit protocol was applied according to the manufacturer’s instructions (PromoKine, Heidelberg, Germany) with few modifications. Briefly, the cells were washed twice with 1 × binding buffer and then treated with FITC-Annexin V (5 μL), ethidium homodimer III (5 μL), and Hoechst 33342 (5 μL) for 20 min at room temperature in a protected-light environment. After washing in 1 × binding buffer, cells were analyzed under an all-in-one fluorescence microscope Biorevo Fluorescence BZ-9000 (Keyence, Osaka, Japan). Healthy cells, apoptotic cells, late apoptotic or necrotic cells, and necrotic cells were counted as previously described.
# K562 CML cell line = tested on: K562 CML cell line; design: method as in PMID 31574910; settings: previously reported by the authors; read-out: IC50, cytotoxic activity against K562 CML cell line; cited from earlier work
# ABL1 kinase = target: ABL1 kinase; design: method as in PMID 31574910; settings: previously reported by the authors; read-out: ABL1 kinase inhibition IC50; cited from earlier work
# K562 cells = tested on: K562 cells; design: method as in PMID 31574910; settings: previously reported by the authors; cited from earlier work
# EGFR = target: T1, EGFR (Homo sapiens, UniProt P00533); test: Kinase inhibition assay (ADP-Glo), EGFR; format: biochemical
# T1 construct: purchased Promega Corporation
# Experimental: (§3) The kinase profiling assay protocol (TK1 and TK-2) was applied according to the manufacturer‘s instructions (Promega Corporation, Madison, WI, USA) with few modifications. In regard to this protocol, the EGFR, HER2, HER4, IGF1R, InsR, KDR, PDGFR-α, PDGFR-β, ABL1, BRK, BTK, CSK, FYN A, LCK, LYN B, and SRC kinase stocks in the kinase strips were diluted with 95 µL 2.5x kinase buffer and their substrate stock in the substrate strip was diluted with 15 µL of 100 µM ATP solutions. Then, the kinase reactions were performed using 2 µL of the kinase working stocks, 2 µL of the ATP/substrate working stocks, and 1 µL of compound solution (0.1–100 µM) or 5% DMSO solution in the 384-well plate. After 4 h of incubation at room temperature, the activity of kinases was detected using ADP-Glo Kinase Assay (Promega Corporation, Madison, WI, USA) according to the manufacturer‘s protocol. Briefly, 5 µL of ADP-Glo reagent was added into each well of 384-well plate and the mixture was incubated at room temperature for 40 min to stop the kinase reaction and deplete any ATP remaining. Then, 10 µL Kinase Detection Reagent was added and the mixture was incubated for a further 30 min to convert the kinase-produced ADP to ATP, and then to light.
# HER4 = target: T2, HER4 (Homo sapiens, UniProt Q15303); test: Kinase profiling assay (ADP-Glo), HER4; format: biochemical; settings: 30 µM concentration
# T2 construct: purchased Promega Corporation
# Experimental: as §3, with “light. […]” for “light.”
# IGF1R = target: T3, IGF1R (Homo sapiens, UniProt P08069); test: Kinase profiling assay (ADP-Glo), IGF1R; format: biochemical; settings: 30 µM concentration
# T3 construct: purchased Promega Corporation
# Experimental: as §3, with “light. […]” for “light.”
# BTK = target: T4, BTK (Homo sapiens, UniProt Q06187); test: Kinase profiling assay (ADP-Glo), BTK; format: biochemical; settings: 30 µM concentration
# T4 construct: purchased Promega Corporation
# Experimental: as §3, with “light. […]” for “light.”
# BRK = target: T5, BRK (Homo sapiens, UniProt Q13882); test: Kinase profiling assay (ADP-Glo), BRK; format: biochemical; settings: 30 µM concentration
# T5 construct: purchased Promega Corporation
# Experimental: as §3, with “light. […]” for “light.”
# LYN B = target: T6, LYN B (Homo sapiens, UniProt P07948); test: Kinase profiling assay (ADP-Glo), LYN B; format: biochemical; settings: 30 µM concentration
# T6 construct: purchased Promega Corporation
# Experimental: as §3, with “light. […]” for “light.”
# SRC = target: T7, SRC (Homo sapiens, UniProt P12931); test: Kinase profiling assay (ADP-Glo), SRC; format: biochemical; settings: 30 µM concentration
# T7 construct: purchased Promega Corporation
# Experimental: as §3, with “light. […]” for “light.”
# HER2 = target: T8, HER2 (Homo sapiens, UniProt P04626); test: Kinase profiling assay (ADP-Glo), HER2; format: biochemical; settings: 30 µM concentration
# T8 construct: purchased Promega Corporation
# Experimental: as §3, with “light. […]” for “light.”
# ABL1 = target: T9, ABL1 (Homo sapiens, UniProt P00519); test: Kinase profiling assay (ADP-Glo), ABL1; format: biochemical; settings: 30 µM concentration
# T9 construct: purchased Promega Corporation
# Experimental: as §3, with “light. […]” for “light.”
# FYN A = target: T10, FYN A (Homo sapiens, UniProt P06241); test: Kinase profiling assay (ADP-Glo), FYN A; format: biochemical; settings: 30 µM concentration
# T10 construct: purchased Promega Corporation
# Experimental: as §3, with “light. […]” for “light.”
# T8 sequence (P04626 23-1255): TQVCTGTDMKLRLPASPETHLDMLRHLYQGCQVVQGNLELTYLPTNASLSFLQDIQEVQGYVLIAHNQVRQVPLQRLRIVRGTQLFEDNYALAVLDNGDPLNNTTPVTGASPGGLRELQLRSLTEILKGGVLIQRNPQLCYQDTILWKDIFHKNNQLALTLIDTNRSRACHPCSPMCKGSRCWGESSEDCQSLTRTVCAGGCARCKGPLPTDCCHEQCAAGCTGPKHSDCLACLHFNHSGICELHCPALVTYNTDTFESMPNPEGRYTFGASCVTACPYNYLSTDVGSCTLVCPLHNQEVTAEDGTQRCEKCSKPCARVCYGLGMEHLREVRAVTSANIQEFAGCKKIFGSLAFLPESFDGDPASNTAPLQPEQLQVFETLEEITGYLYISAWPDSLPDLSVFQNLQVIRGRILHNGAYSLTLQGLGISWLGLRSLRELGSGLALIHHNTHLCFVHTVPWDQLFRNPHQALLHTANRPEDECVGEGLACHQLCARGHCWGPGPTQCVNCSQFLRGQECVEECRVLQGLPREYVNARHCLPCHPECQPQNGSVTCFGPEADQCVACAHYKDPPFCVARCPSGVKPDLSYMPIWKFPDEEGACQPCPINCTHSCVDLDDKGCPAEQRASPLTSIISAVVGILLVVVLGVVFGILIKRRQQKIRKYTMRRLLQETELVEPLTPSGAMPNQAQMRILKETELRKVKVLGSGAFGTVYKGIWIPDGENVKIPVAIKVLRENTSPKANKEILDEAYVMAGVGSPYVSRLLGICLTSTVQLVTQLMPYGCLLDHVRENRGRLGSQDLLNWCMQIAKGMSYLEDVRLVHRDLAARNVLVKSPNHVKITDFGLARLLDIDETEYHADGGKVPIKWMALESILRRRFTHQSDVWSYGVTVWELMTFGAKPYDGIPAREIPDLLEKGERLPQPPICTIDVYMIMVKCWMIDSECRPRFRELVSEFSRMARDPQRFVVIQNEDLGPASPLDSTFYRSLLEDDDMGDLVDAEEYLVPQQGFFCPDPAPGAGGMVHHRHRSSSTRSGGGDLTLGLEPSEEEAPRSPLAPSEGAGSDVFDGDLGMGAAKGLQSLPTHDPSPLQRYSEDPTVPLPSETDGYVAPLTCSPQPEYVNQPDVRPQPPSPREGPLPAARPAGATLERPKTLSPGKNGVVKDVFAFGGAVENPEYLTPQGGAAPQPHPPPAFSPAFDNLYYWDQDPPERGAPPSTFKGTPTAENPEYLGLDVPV
# T10 sequence (P06241 whole entry): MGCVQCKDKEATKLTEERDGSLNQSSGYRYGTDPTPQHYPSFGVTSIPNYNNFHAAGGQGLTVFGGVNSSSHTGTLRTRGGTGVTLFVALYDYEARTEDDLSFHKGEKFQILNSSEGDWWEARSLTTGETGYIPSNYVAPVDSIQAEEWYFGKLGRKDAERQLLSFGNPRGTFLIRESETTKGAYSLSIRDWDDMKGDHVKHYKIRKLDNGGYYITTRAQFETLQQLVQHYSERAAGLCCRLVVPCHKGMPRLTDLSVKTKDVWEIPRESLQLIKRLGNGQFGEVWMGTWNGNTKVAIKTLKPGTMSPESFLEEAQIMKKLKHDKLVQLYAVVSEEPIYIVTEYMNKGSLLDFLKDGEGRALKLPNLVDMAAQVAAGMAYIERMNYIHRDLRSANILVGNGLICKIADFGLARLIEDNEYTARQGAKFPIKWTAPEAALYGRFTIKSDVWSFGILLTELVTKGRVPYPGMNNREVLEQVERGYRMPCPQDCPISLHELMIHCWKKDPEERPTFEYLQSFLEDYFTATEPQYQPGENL
# T1 sequence (P00533 25-1210): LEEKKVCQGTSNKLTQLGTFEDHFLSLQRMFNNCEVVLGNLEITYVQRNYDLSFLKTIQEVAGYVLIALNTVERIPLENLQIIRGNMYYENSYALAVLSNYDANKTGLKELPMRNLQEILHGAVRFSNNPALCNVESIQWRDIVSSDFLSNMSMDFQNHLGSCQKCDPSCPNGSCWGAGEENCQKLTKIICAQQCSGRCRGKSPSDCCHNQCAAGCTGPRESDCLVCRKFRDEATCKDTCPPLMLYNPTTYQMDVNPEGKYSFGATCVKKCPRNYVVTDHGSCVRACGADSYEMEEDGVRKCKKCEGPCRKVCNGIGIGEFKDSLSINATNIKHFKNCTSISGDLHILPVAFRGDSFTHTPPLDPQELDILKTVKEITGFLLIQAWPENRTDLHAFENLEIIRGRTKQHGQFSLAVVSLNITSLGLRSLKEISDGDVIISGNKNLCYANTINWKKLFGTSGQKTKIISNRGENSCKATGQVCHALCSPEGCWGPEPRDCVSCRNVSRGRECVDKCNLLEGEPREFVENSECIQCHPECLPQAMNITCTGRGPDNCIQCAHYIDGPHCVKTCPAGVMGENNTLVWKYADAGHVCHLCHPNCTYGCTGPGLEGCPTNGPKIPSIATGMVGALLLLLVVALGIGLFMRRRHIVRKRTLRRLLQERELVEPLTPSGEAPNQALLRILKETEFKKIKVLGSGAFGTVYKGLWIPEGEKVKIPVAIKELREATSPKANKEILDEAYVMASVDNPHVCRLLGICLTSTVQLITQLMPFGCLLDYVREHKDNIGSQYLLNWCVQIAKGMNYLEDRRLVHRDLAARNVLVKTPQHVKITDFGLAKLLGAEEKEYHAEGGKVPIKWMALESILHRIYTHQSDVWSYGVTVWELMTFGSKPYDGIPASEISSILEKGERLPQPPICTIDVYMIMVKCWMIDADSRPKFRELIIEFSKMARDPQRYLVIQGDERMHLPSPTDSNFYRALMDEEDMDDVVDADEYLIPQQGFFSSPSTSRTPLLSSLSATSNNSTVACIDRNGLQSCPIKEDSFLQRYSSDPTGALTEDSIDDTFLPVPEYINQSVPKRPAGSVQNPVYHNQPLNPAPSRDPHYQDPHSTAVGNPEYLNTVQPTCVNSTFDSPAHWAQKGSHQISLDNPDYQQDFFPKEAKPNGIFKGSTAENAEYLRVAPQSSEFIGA
# T9 sequence (P00519 whole entry): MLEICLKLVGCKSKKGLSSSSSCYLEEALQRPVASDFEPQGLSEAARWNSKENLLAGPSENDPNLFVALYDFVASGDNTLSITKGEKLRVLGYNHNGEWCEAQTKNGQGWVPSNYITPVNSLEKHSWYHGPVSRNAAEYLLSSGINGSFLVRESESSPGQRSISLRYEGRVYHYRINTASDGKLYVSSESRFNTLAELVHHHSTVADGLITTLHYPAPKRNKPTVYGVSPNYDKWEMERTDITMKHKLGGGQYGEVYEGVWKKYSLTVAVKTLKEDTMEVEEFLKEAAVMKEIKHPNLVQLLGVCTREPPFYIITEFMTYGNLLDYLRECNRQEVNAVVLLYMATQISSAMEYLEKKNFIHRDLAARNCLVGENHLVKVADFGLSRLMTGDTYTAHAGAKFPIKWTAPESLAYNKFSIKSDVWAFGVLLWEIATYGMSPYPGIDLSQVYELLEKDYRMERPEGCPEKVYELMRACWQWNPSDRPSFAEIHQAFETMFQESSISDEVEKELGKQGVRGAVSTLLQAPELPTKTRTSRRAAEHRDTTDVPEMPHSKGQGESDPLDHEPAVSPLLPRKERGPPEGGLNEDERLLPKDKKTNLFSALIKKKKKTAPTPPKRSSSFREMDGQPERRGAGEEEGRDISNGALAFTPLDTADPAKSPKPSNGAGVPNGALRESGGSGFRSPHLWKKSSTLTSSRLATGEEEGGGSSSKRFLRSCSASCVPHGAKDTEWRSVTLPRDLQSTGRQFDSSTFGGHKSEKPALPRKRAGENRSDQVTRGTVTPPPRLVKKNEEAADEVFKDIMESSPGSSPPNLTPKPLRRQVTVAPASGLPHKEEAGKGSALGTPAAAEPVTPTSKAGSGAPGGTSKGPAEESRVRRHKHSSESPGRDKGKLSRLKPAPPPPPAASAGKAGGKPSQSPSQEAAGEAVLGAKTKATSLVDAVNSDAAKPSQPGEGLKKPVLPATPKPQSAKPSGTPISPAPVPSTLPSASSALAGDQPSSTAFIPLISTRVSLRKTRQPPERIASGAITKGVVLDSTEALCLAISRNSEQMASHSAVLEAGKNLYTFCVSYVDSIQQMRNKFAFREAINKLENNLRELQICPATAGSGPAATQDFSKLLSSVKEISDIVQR
# T5 sequence (Q13882 whole entry): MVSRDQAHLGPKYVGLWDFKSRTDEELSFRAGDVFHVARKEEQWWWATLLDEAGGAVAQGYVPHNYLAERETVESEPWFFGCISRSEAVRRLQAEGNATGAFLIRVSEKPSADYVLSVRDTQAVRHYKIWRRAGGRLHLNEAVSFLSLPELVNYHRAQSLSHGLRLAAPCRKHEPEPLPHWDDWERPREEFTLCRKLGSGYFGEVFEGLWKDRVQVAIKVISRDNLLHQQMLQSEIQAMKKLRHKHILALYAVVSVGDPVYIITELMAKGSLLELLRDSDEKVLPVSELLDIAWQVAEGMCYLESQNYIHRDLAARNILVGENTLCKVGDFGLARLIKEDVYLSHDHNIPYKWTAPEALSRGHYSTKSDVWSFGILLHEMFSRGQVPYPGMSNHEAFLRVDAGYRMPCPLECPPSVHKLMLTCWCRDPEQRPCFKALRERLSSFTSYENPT
# T6 sequence (P07948 1-491 isoform P07948-2): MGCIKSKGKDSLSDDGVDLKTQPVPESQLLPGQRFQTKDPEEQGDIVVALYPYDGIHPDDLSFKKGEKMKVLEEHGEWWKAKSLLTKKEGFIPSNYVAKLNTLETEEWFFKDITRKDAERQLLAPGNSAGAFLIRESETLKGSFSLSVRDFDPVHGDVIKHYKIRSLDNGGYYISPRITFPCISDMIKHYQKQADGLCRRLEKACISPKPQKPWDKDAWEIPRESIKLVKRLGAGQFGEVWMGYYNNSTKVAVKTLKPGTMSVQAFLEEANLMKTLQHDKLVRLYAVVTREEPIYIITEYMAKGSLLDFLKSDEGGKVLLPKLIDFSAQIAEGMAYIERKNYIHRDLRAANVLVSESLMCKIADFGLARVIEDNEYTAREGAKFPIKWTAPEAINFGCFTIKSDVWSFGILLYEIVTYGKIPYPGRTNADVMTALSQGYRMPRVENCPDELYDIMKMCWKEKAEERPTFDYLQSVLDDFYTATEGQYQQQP
Structure (SMILES),SI (selectivity index) [4],apoptosis in U251 cells (U251 cells),"IC50 ([1]; Homo sapiens, U-251)",anticancer activity against U251 cells [1],"IC50 ([2]; Homo sapiens, T98G)",anticancer activity against T98G cells [2],"IC50 ([3]; Homo sapiens, U-87 MG)",anticancer activity against U87 cells [3],IC50 (K562 CML cell line),HER2 inhibition (HER2),ABL1 inhibition (ABL1),FYN A inhibition (FYN A),other results
"N.N.[Cl][Pt][Cl] [Cisplatin, cisplatin, reference compound]",7.12,13.83%,,,,,,,,,,,IC50 [1]: 7.7 ± 2.81 µM; IC50 [2]: 16.9 ± 3.95 µM; IC50 [3]: 20.9 ± 5.16 µM; IC50 [4]: 4.87 ± 2 µM; IC50 [5]: 34.7 ± 7.11 µM
CC1(C)CC[C@]2(C(=O)OCc3ccccc3)CC[C@]3(C)C(=CC[C@@H]4[C@@]5(C)CC[C@H](O)C(C)(C)[C@@H]5CC[C@]43C)[C@@H]2C1 [Compound 5],,,> 100 µM,no significant anticancer activity,> 100 µM,no significant anticancer activity,> 100 µM,no significant anticancer activity,5.46 µM,,,,IC50 (ABL1 kinase): 1.44 µM
CC1(C)CC[C@]2(C(=O)OCc3cc(C(F)(F)F)cc(C(F)(F)F)c3)CC[C@]3(C)C(=CC[C@@H]4[C@@]5(C)CC[C@H](O)[C@@](C)(C=O)[C@@H]5CC[C@]43C)[C@@H]2C1 [Compound 8],,,> 100 µM,no significant anticancer activity,> 100 µM,no significant anticancer activity,> 100 µM,no significant anticancer activity,4.78 µM,,,,apoptosis in K562 cells (K562 cells): 24%
CC1(C)CC[C@]2(C(=O)OCc3ccc(C#N)cc3)CC[C@]3(C)C(=CC[C@@H]4[C@@]5(C)CC[C@H](O)[C@@](C)(C=O)[C@@H]5CC[C@]43C)[C@@H]2C1 [Compound 9],,,14.1 ± 3.41 µM,,56.6 ± 6.08 µM,,> 100 µM,,3.19 µM,,,,
"C[C@@H](NCC1(C)C(O)CCC2(C)C1CCC1(C)C2CC=C2C3CC(C)(C)CCC3(C(=O)O)CCC21C)c1ccccc1 (stereo partly drawn) [Compound 10, 10-Hydroxy-2,2,6a,6b,9,12a-hexamethyl-9-[(((R)-1-phenylethyl)amino)methyl]-1,2,3,4,4a,5,6,6a,6b,7,8,8a,9,10,11,12,12a,12b,13,14b-icosahydropicene-4a-carboxylic acid]",7.90,10.29%,5.82 ± 1.66 µM,,8.19 ± 2.42 µM,,17 ± 4.92 µM,,,moderate,moderate,moderate,"IC50 ([4]; Homo sapiens, Jurkat): 3.56 ± 1.45 µM; IC50 ([5]; Homo sapiens, PBMC): 28.1 ± 5.05 µM; EGFR inhibition relative to InsR inhibition (EGFR; 30 µM concentration, stronger inhibition of EGFR than InsR): approximately 2 fold; IC50 (EGFR; ADP-Glo kinase assay): 9.43 µM; HER4 inhibition (HER4): no significant inhibition; IGF1R inhibition (IGF1R): no significant inhibition; BTK inhibition (BTK): no significant inhibition; BRK inhibition (BRK): no significant inhibition; LYN B inhibition (LYN B): no significant inhibition; SRC inhibition (SRC): no significant inhibition; melting point: 240 to 243 °C"
"C#Cc1cccc(Nc2ncnc3cc(OCCOC)c(OCCOC)cc23)c1 [erlotinib, reference compound]",,,,,,,,,,moderate,moderate,moderate,
